Measured values as given in patent US5798365A, “Substituted quinoline derivatives, a process for their preparation, and their use” (Hoechst Aktiengesellschaft, priority 1994, dated 1998).
Values after ≈ are worked out from the molar mass of the structure shown. Where two headings read alike, the source gives them in different places.

How the values were obtained:
HIV = experiment: Testing preparations against HIV in cell culture (infected human donor lymphocytes); assay type: cell-based; conditions: for MIC: Human immunodeficiency virus 1, 72 h, lowest concentration without giant cells; for IC50: Human immunodeficiency virus 1, Lymphocyte, 72 h
Experimental: Testing preparations against HIV in cell culture
Description of the method
The complete medium additionally contains 20% foetal calf serum and 40 IU/ml recombinant interleukin 2.
Lymphocytes which have been isolated from fresh donor blood by means of Ficoll® gradient centrifugation are cultured, at 37° C. for 36 h and under 5% CO2, in complete medium in the added presence of […] phytohemagglutinin (Wellcome). After the addition of 10% DMSO, the cells are frozen at a cell density of 5×10^6 and stored in liquid nitrogen. For the experiment, the cells are thawed, washed in RPMI medium and cultured for 3-4 days in complete medium.
The preparations for testing were dissolved in DMSO at a concentration of 16.7 mg/ml and diluted to 1 mg/ml in complete medium. 0.4 ml of medium was initially introduced in 24-well multiwell plates. After 0.1 ml of the dissolved preparation had been added to the upper row of the plate, a geometrical dilution series was produced by transferring 0.1 ml on each occasion. Preparation-free controls always contained 0.4 ml of complete medium containing 0.5% DMSO.
Lymphocyte cultures having a cell count of 5×10^5 cells/ml were infected by adding a 1/50 volume of the supernatant from lymphocyte cultures infected with HIV. The titer of these culture supernatants was determined, by end point dilution, to be 1-5×10^6 infectious units/ml. After incubating at 37° C. for 30 min, the infected lymphocytes were centrifuged off and taken up once again in the same volume of medium. 0.6 ml of this cell suspension was added to each of the wells in the test plate. The assay mixtures were incubated at 37° C. for 3 days.
The infected cell cultures were examined under the microscope for the presence of giant cells, which indicate that the virus is multiplying actively in the culture. The lowest preparation concentration at which no giant cells appeared was defined as the inhibitory concentration against HIV (MIC value). As a control, the presence of HIV antigen in the supernatants from the culture plates was determined using a test for HIV antigen in accordance with the manufacturer's (Organon) instructions.

[1] = biological target: T1, HIV reverse transcriptase (Human immunodeficiency virus type 1 group M subtype B, UniProt P04585); experiment: Inhibition of HIV reverse transcriptase, scintillation proximity assay (SPA); assay type: biochemical; conditions: RT-SPA, 60 min, 37° C., read-out: Reverse Transcriptase Asaay IC-50 (converted)
T1 construct: purchased HT-Biotechnology LTD, Cambridge, UK; host or cells: E. coli
Experimental: Investigation of the ability of the substances to inhibit the HIV reverse transcriptase
The activity of the reverse transcriptase (RT) was measured by means of a scintillation proximity assay (SPA).
The reagent kit for the RT-SPA was obtained from Amersham/Buchler (Braunschweig). The RT enzyme (originating from HIV and cloned in E. coli) was provided by HT-Biotechnology LTD, Cambridge, UK.
The test was carried out in accordance with the supplier's (Amersham) methods manual--with the following modifications:
bovine serum albumin was added to the assay buffer to a final concentration of 0.5 mg/ml.
The test was carried out in Eppendorf reaction tubes using a mixture volume of […].
The supplier's RT concentrate (5000 U/ml) was diluted in 20 mM tris-HCl buffer; pH 7.2; 30% glycerol to an activity of 15 U/ml.
The assay mixtures were incubated for 60 min (at 37° C.).
After the reaction had been stopped and "developed" using the bead suspension, […] of assay mixture was transferred into 4.5 ml of 10 mM tris-HCl buffer; pH 7.4; 0.15M NaCl
and the tritium activity was measured in a β counter.
In order to carry out a preliminary test for inhibitor activity, the substances were dissolved in DMSO (stock solution concentration=1 mg/ml) and tested at 10^-1, 10^-2, 10^-3, etc. dilutions in DMSO.
In order to determine the IC50 values, the stock solutions of inhibitor were further diluted in 50 mM tris-HCl buffer, pH 8, and tested at suitable concentrations.
The concentration giving rise to 50% inhibition of the enzyme was ascertained from the graphic depiction of RT activity versus log Cinh.

[2] = HIV-infected lymphocytes, 3 days, 37° C.
[3] = HIV-infected lymphocytes, 3 days, 37° C., read-out: IC-50

Row | SMILES | MIC (HIV; [2]) [µg/mL] | IC50 (HIV; [3]) [µg/mL] | IC50 ([1]; molar value in parentheses) [nM] | IC50 [1] [nM] | further results
1 | CCC=C1c2ccccc2NC(=O)C1(CC)CC [Compound 50] | < 0.1 | ~0.01 (≈ 0.0411 µM) |  |  | 
2 | CCCC=C1c2ccccc2NC(=S)C12CCCC2 [Compound 8, E/Z-4-n-butylene-3,3-cyclopentylidene-3,4-dihydroquinolin-2(1H)-thione] | 0.008 (≈ 0.0295 µM) |  | 16 | 14.7 | IC50 (HIV): 0.0016 µg/mL (≈ 0.00589 µM)
3 | CC(C)=C1c2cc(Cl)ccc2NC(=S)C1(C)C [Compound 10] |  |  | 116 | 117 | IC50 (HIV; HIV-infected lymphocytes, 3 days, unit as printed for compound 10, read-out: IC-50): 0.025 µg/mL (≈ 0.0941 µM)
4 | CC(C)CC=C1c2cc(Cl)ccc2NC(=S)C1(C)C [Compound 20] | < 0.008 | 0.0015 (≈ 0.0051 µM) | 22 | 21.4 | 
5 | CCOC(=O)/C=C1\c2cc(Cl)ccc2NC(=S)C1(C)C [Compound 142] | < 0.2 | 0.004 (≈ 0.0129 µM) |  | 123 | 
6 | CC1(C)C(=S)Nc2ccc(F)cc2C1=C1CCCC1 [Compound 143] | > 0.008 | < 0.008 |  |  | 
7 | C=C1c2cc(Cl)ccc2NC(=S)C1(C)C [Compound 1] | 1 (≈ 4.21 µM) | ≥ 0.04 |  |  | 
8 | CCC=C1c2ccccc2NC(=S)C1(CC)CC [Compound 51] | 0.02 (≈ 0.0771 µM) | ~0.002 (≈ 0.00771 µM) | 23 | 23.1 | 
9 | CCC=C1c2cc(OC)ccc2NC(=O)C1(C)C [Compound 44] | 0.2 (≈ 0.815 µM) | 0.06 (≈ 0.245 µM) |  |  | 
10 | CCC=C1c2cc(Cl)ccc2NC(=O)C12CCCC2 [Compound 77] | 0.2 (≈ 0.725 µM) | ~0.03 (≈ 0.109 µM) |  |  | 
11 | CCC=C1c2cc(Cl)ccc2NC(=S)C1(C)C [Compound 4] | 0.0016 (≈ 0.00602 µM) | < 0.00032 | 8 | 7.52 | 
12 | CCCC=C1c2cc(Cl)ccc2NC(=O)C1(C)C [Compound 2, 4-n-Butylene-6-chloro-3,4-dihydro-3,3-dimethylquinolin-2(1H)-one] | 0.1 (≈ 0.379 µM) | ~0.015 (≈ 0.0569 µM) | 63 | 64.5 | 
13 | CCC1(CC)C(=O)Nc2ccccc2C1=CCC(C)C [Compound 52] | 0.02 (≈ 0.0737 µM) | ~0.004 (≈ 0.0147 µM) | 43 | 44.2 | 
14 | CCOc1ccc2c(c1)C(=CCC(C)C)C(C)(C)C(=O)N2 [Compound 58] | < 0.1 |  |  |  | IC50 (HIV; HIV-infected lymphocytes, 3 days, unit as printed for compound 58, read-out: IC-50): ~0.02 µg/mL (≈ 0.0696 µM)
15 | COc1ccc2c(c1)C(=C1CCCC1)C(C)(C)C(=S)N2 [Compound 140] | 0.2 (≈ 0.696 µM) | 0.006 (≈ 0.0209 µM) |  | 17.4 | 
16 | CC(C)C=C1c2cc(Cl)ccc2NC(=S)C1(C)C [Compound 18] | < 0.008 | 0.002 (≈ 0.00715 µM) | 55 |  | IC50 ([1]; first value of compound 18, unit as printed): 54.3 nM
17 | CC/C=C1/c2cc(Cl)ccc2NC(=S)C1(C)C [Compound 72] | < 0.008 |  |  |  | 
18 | CC(C)CC=C1c2ccccc2NC(=O)C12CCCC2 [Compound 67] | < 0.1 | ~0.02 (≈ 0.0742 µM) | 91 | 89.1 | 
19 | CCCC=C1c2cc(Cl)ccc2NC(=NO)C1(C)C [Compound 60] | 0.0016 (≈ 0.00574 µM) | ~0.0003 (≈ 0.00108 µM) | 12 | 10.8 | 
20 | CCCC=C1c2cc(OC(F)(F)F)ccc2NC(=S)C1(C)C [Compound 36] | < 0.2 | ~0.01 (≈ 0.0304 µM) |  |  | 
21 | CCC/C=C1/c2cc(Cl)ccc2NC(=O)C1(C)C [Compound 74, Z-4-n-butylene-6-chloro-3,4-dihydro-3,3-dimethylquinolin-2(1H)-one] | 0.04 (≈ 0.152 µM) |  |  |  | IC50 (HIV; HIV-infected lymphocytes, 3 days, unit as printed for compound 74, read-out: IC-50): 0.02 µg/mL (≈ 0.0758 µM)
22 | CCCC=C1c2ccccc2NC(=O)C12CCC2 [Compound 5] | 0.2 (≈ 0.829 µM) | 0.04 (≈ 0.166 µM) | 479 | 479 | 
